In patent publication US20240287033A1, “DEGRADERS OF TISSUE TRANSGLUTAMINASE 2 (TG2)” (Northwestern University, priority 2023, published 2024):
Entries after “also recorded” stand apart in the source; their conditions may differ.

What was measured:
OVCAR5 cells [1] = test: Solid phase adhesion assay on fibronectin, OVCAR5; type: cell-based
Method: (§1) Briefly, wells were coated with 10 μg/ml fibronectin diluted in PBS for one hour. 30,000 cells pretreated with compounds for 6 hours were seeded and allowed to attach for 30 minutes. After washing with PBS to remove unattached cells, cells adhering to coated wells were quantified by using the CCK-8 assay (ApexBio), following the manufacturer's protocol. Relative absorbance measured at 496 nm was used to estimate the relative number of the cell attached to fibronectin coated wells.

TG2 [2] = target: T1, TG2 (Homo sapiens, UniProt P21980); test: Western blot analysis of TG2 degradation in OVCAR5 cells; type: cell-based; details: for TG2 degradation (western blot): 6 hours, 0.1-10 μM
T1 construct: tested in multiple ovarian cancer cell lines that express TG2 for their ability to degrade the protein; endogenous in cells; host or cells: OVCAR5 and SKOV3 ovarian cancer cells
T1 sequence (P21980 1-687): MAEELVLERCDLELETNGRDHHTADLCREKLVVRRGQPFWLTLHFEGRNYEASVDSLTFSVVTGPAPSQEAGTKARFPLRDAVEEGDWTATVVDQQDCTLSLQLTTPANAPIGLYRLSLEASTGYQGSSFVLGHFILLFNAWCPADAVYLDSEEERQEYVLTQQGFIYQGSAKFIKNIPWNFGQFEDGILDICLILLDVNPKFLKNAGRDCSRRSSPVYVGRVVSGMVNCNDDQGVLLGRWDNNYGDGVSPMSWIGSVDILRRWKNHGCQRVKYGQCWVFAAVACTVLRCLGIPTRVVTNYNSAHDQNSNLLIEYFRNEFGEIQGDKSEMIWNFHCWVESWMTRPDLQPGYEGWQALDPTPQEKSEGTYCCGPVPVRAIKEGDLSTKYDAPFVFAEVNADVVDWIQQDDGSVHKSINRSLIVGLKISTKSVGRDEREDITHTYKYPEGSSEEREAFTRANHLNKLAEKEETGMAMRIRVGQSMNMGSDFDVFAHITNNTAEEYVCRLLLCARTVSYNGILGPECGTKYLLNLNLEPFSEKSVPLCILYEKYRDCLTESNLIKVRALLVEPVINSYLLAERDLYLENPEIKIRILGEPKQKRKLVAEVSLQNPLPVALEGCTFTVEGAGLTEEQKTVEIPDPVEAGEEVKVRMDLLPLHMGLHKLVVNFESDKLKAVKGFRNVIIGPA
Method: (§2) SKOV3 cells were purchased from ATCC. OVCAR5 cells were obtained from Dr. Marcus Peter at Northwestern University. Cells were maintained at 37° C. in an environment of 5% CO2 and 100% humidity. The media used for culturing the cell lines are included in Table 1. Cells lines used in all experiments were at low-passages and were confirmed to be pathogen and mycoplasma-free by Charles River Animal Diagnostic Services. Cell lines were authenticated by IDEXX BioAnalytics with short tandem repeat (STR) profiling. MG132 was obtained from SelleckChem. Anti-TG2 antibody (cat #: MAB3839-I-100UG) was purchased from Millipore Sigma, GAPDH antibody (cat #: H86504M) was purchased from Meridian Bioscience.
(§3) Briefly, SKOV3 and OVCAR5 cells were seeded on 6 cm dishes and treated with different concentrations of compounds at different time points. Proteins were extracted using RIPA buffer and quantified using the Bradford assay. After gel electrophoresis and transfer, PDVF membranes were blocked with TBS-Tween 5% BSA for one hour and incubated with primary antibodies 20 (1:1000 dilution, overnight at 4° C.). After incubation with the secondary antibody (anti rabbit/mouse-horseradish peroxidase 1:1000 dilution) for 1 h at room temperature, signal was developed using SuperSignal West Pico PLUS Chemiluminescent Substrate (Thermo Fisher Scientific cat #: 34580) and captured with an ImageQuant LAS 4000 machine. To detect additional proteins, membranes were treated with Restore Western Blot Stripping Buffer (Thermo Fisher Scientific cat #: 21059), blocked, and then incubated with primary antibody.

SKOV3 cells [3] = test: Wound-healing (scratch) assay, SKOV3; type: cell-based
Method: (§4) For the scratch assay, confluent 6-well plates were scratched with a pipette tip, washed and treated with compounds or vehicle. The plate was photographed at set time points and the area of wound closure was quantified with ImageJ. Cell migration was assessed by using Transwell inserts (8 μm pore size, Merck-Millipore, Watford, UK). Briefly, 15,000 cells were seeded in the upper chambers of trans-wells in serum-free media containing compounds or control, while media containing 10% serum was added to the lower chamber. After 18 hours, cells invaded through the transwells were fixed with warm 4% PFA for 20 min at room temperature and stained with crystal violet for 3 min. The membranes were removed, mounted on cover slides and cells were counted using a microscope at 40× magnification.

SKOV3 cells [4] = test: Transwell migration assay, SKOV3; type: cell-based
Method: as §4

full-length TG2 = target: T2, full-length TG2 (Homo sapiens, UniProt P21980); test: Isothermal titration calorimetry (ITC) binding to TG2
T2 sequence (P21980 1-687): T1 sequence (P21980 1-687)
Method: Sample Preparation. Protein dilutions in PBS with 1% DMSO were prepared from stock solutions of […] in PBS. The protein dilutions were initially equilibrated on ice for 5 min, then for 20 min at 30° C. The solutions were filtered using a […] Millipore centrifugal device just prior to insertion in the ITC cell. The solubility of the protein solutions was confirmed independently by DLS (data not shown), and the concentration of each solution (after filtration) was measured with a NanoDrop 2000 Instrument.
All compound dilutions were made in PBS, and the final DMSO concentration in each solution was carefully adjusted to 1%.
ITC Experiments. All ITC experiments were performed on an Affinity Low Volume instrument (Waters/TA Instruments) equipped with a fixed 198 μL gold cell. In each experiment, 320 μL of protein solution was loaded into the ITC cell, and 200 μL of the corresponding compound was in the syringe. The data were acquired using ITCRun data acquisition software. The incremental ITC experiments consisted of multiple 2 μL injections at 50-350-second intervals with a stirring speed of 100 revolutions per minute (rpm). The Auto Equilibrate function allowed for the equilibration of the baseline to a peak-to-peak standard deviation of less than 12 nW. For each compound, separate control experiments were performed to evaluate the heat of dilution. The control experiments were set with identical parameters but performed with reaction buffer instead of protein in the ITC cell and consisted of fewer (6-10) injections.
Data Analysis. ITC data were analyzed with Nano Analyze Software (Waters/TA Instruments) using the “independent sites” model after correction for heats of dilution.

OVCAR5 cells [5] = test: Cell viability assay (CCK-8), OVCAR5; type: cell-based; details: 0.1-30 μM, 5 days
Method: (§5) The numbers of viable cells were quantified by using the CCK-8 assay (ApexBio) following the manufacturer's directions. Absorbance was measured by a spectrophotometer at 495 nm and used estimate the viability of the cells.

TG2 [6] = target: T1, TG2; test: Western blot analysis of TG2 degradation in SKOV3 cells; type: cell-based; details: for TG2 degradation (western blot): 6 hours, up to 10 μM; for TG2 degradation with proteasome inhibitor MG132 co-treatment: MG132 20 μM 8 hrs
Method: as §2, §3

SKOV3 cells [7] = test: Solid phase adhesion assay on fibronectin, SKOV3; type: cell-based
Method: as §1

OVCAR5 cells [8] = test: Transwell migration assay, OVCAR5; type: cell-based
Method: as §4

OVCAR5 cells [9] = test: Wound-healing (scratch) assay, OVCAR5; type: cell-based
Method: as §4

SKOV3 cells [10] = test: Cell viability assay (CCK-8), SKOV3; type: cell-based; details: 0.1-30 μM, 5 days
Method: as §5

[11] = 10 μM compound 6 hrs, 10 μM VHL ligand
[12] = dosed every 6-8 hours over 24 hours, 1 or 10 μM

Compound	adhesion of cells to fibronectin (OVCAR5 cells [1])	TG2 degradation with VHL ligand as competitive inhibitor (TG2 [2]; [11])	TG2 degradation (western blot) (TG2 [2])	TG2 levels after longer treatment (western blot) (TG2 [2]; 24 hours, single dosing)	TG2 levels at 24 hours after repeated dosing (TG2 [2]; [12])	cell migration, wound-healing assay (SKOV3 cells [3])	cell migration, transwell migration assay (SKOV3 cells [4])	decrease in affinity relative to the parental compound MT4 (full-length TG2; ITC KD ratio versus MT4) [fold]	Kd (full-length TG2; titration into TG2 at 30° C., PBS with 1% DMSO, read-out: equilibrium dissociation constant KD (ITC)) [µM]	cell death / viability (OVCAR5 cells [5])	TG2 degradation with VHL ligand as competitive inhibitor (TG2 [6]; [11])	TG2 degradation (western blot) (TG2 [6])	TG2 levels after longer treatment (western blot) (TG2 [6]; 24 hours, single dosing)	TG2 levels at 24 hours after repeated dosing (TG2 [6]; [12])	time of maximal TG2 degradation (TG2 [6]; higher concentrations (10 and 30 μM)) [h]	adhesion of cells to fibronectin (SKOV3 cells [7])	cell migration, transwell migration assay (OVCAR5 cells [8])	cell migration, wound-healing assay (OVCAR5 cells [9])	cell death / viability (SKOV3 cells [10])	TG2 degradation with proteasome inhibitor MG132 co-treatment (TG2 [6]; 10 μM compound 6 hrs)
Cc1cc(N(C)CCOCCOCCOCCOCCOCCC(=O)N[C@H](C(=O)N2C[C@H](O)C[C@H]2C(=O)NCc2ccc(-c3scnc3C)cc2)C(C)(C)C)nc(Nc2ccc(NC(=O)Cc3ccccc3)cc2)n1 [Compound 11, (2S,4R)-1-((S)-22-(tert-buty)-2-(6-methyl-2-((4-(2-phenylacetamido)phenyl)amino)pyrimidin-4-yl)-20-oxo-5,8,11,14,17-pentaoxa-2,21-diazatricosan-23-oyl)-4-hydroxy-N-(4-(4-methylthiazol-5-yl)benzyl)pyrrolidine-2-carboxamide]	significantly reduced the adhesion	prevented degradation of TG2	significantly reduced the level of TG2; also recorded: Degradation of TG2 was observed	did not induce reduction in TG2 levels	persistent and dose-dependent decreased TG2 levels	similarly inhibited the migration	similarly inhibited the migration	8.8	68.9	No significant cell death; also recorded: no cell death was observed	prevented degradation of TG2; also recorded: but not when combined with VHL ligand	significantly reduced the level of TG2; also recorded: Degradation of TG2 was observed	did not induce reduction in TG2 levels	persistent and dose-dependent decreased TG2 levels	6	significantly reduced the adhesion	potently inhibited the migration	potently inhibited the migration	No significant cell death; also recorded: no cell death was observed	
Cc1cc(N(C)CCOCCC(=O)N[C@H](C(=O)N2C[C@@H](O)C[C@H]2C(=O)NCc2ccc(-c3scnc3C)cc2)C(C)(C)C)nc(Nc2ccc(NC(=O)Cc3ccccc3)cc2)n1 [Compound 12, (2S,4S)-1-((S)-3,3-dimethyl-2-(3-(2-(methyl(6-methyl-2-((4-(2-phenylacetamido)phenyl)amino)pyrimidin-4-yl)amino)ethoxy)propanamido)butanoyl)-4-hydroxy-N-(4-(4-methylthiazol-5-yl)benzyl)pyrrolidine-2-carboxamide]	did not affect		did not induce TG2 degradation; also recorded: No degradation of TG2 was observed			did not affect cell migration						did not induce TG2 degradation; also recorded: No degradation of TG2 was observed				did not affect		did not affect cell migration		
Cc1cc(N(C)CCOCCOCCOCCSC(C)(C)[C@H](NC(=O)C2(F)CC2)C(=O)N2C[C@H](O)C[C@H]2C(=O)NCc2ccc(-c3scnc3C)cc2)nc(Nc2ccc(NC(=O)Cc3ccccc3)cc2)n1 [Compound P404]						reduce the migration						degrade TG2				reduce the migration and adhesion capability				blocked
Cc1cc(N(C)CCOCCSC(C)(C)[C@H](NC(=O)C2(F)CC2)C(=O)N2C[C@H](O)C[C@H]2C(=O)NCc2ccc(-c3scnc3C)cc2)nc(Nc2ccc(NC(=O)Cc3ccccc3)cc2)n1 [Compound P405]						reduce the migration						degrade TG2				reduce the migration and adhesion capability				blocked
Cc1cc(N(C)CCOCCOCCOCCOCCOCCC(=O)N[C@H](C(=O)N2C[C@@H](O)C[C@H]2C(=O)NCc2ccc(-c3scnc3C)cc2)C(C)(C)C)nc(Nc2ccc(NC(=O)Cc3ccccc3)cc2)n1 [Compound 13, (2S,4S)-1-((S)-22-(tert-butyl)-2-(6-methyl-2-((4-(2-phenylacetamido)phenyl)amino)pyrimidin-4-yl)-20-oxo-5,8,11,14,17-pentaoxa-2,21-diazatricosan-23-oyl)-4-hydroxy-N-(4-(4-methylthiazol-5-yl)benzyl)pyrrolidine-2-carboxamide]	did not affect		did not induce TG2 degradation; also recorded: No degradation of TG2 was observed			did not affect cell migration						did not induce TG2 degradation; also recorded: No degradation of TG2 was observed				did not affect		did not affect cell migration		
